Measurements taken from US20260374818A1, “CATIONIC PEPTIDES WITH BROAD SPECTRUM ACTIVITY” (priority 2023, published 2026).
In brackets after ≈: the same amount, converted by molar mass. Where a SMILES comes first, the peptide text is derived from it. [ ]: non-standard residue; d: D form.

How the values were obtained:
[1] = test system: MRSA biofilms (USA300 LAC); details: MRSA biofilms, SPOT peptides
Klebsiella pneumoniae = assay: MIC (broth microdilution) of peptides, K. pneumoniae; type: cell-based; details: mode of three biological replicates
Method: (§1) Minimal inhibitory concentration (MIC) against planktonic bacteria: The MIC of the synthetic peptides was determined in Mueller-Hinton broth (MHB) using the broth microdilution method described previously [Wiegand, I., Hilpert, K., & Hancock, R. E. (2008). Agar and broth dilution methods to determine the minimal inhibitory concentration (MIC) of antimicrobial substances. Nature Protocols, 3(2), 163-175]. Briefly, 10 μl of a 10× concentrated peptide solution was placed in the bottom of a well in a 96-well polypropylene round bottom plate (Corning Inc.). A bacterial suspension of ~5×10^5 CFU/ml was prepared from an overnight culture and 90 μl of this was added to each well. […] Bacteria tested included P. aeruginosa PAO1, MRSA USA300 LAC, Staphylococcus haemolyticus, Staphylococcus epidermidis, Klebsiella pneumoniae and Streptococcus salivarius.
(§2) Finally, the AB103-D derivatives that were the least aggregation prone and which produced the lowest toxic effects in vivo were evaluated for their direct antibacterial activity towards several pathogens of clinical relevance using a standard minimum inhibitory concentration (MIC) assay [Wiegand, I., Hilpert, K., & Hancock, R. E. (2008). Agar and broth dilution methods to determine the minimal inhibitory concentration (MIC) of antimicrobial substances. Nature Protocols, 3(2), 163-175]. Specifically, peptides AB110-D, AB111-D, AB114-D and AB115-D were tested against P. aeruginosa PAO1, MRSA USA 300, Staphylococcus haemolyticus, Staphylococcus epidermidis, Klebsiella pneumoniae and Streptococcus salivarius and compared against the antibacterial activity of DJK-5 and AB103-D (Table 7). Overall, the antibacterial potency of all of the AB103-D derivatives was stronger than that seen for DJK-5, particularly in the case of the Gram-negative pathogens P. aeruginosa and K. pneumoniae. […]

P. aeruginosa PAO1 = assay: MIC (broth microdilution) of peptides, P. aeruginosa; type: cell-based, Pseudomonas aeruginosa; details: mode of three biological replicates
Method: as §1, §2

[2] = test system: Staphylococcus epidermidis; assay: MIC (broth microdilution) of peptides, S. epidermidis; type: cell-based; details: mode of three biological replicates
Method: as §1, §2

[3] = test system: P. aeruginosa PAO1 biofilms; details: P. aeruginosa PAO1 biofilms; >95% pure peptides; crystal violet; BM2 minimal media
[4] = test system: MRSA USA300 planktonic cells; assay: Planktonic growth inhibition by pure AB103-D derivatives, MRSA; type: cell-based, methicillin resistant Staphylococcus aureus
Method: The effect of peptide on bacterial and biofilm growth was assessed using the biofilm inhibition assay [Haney, E. F., Trimble, M. J., & Hancock, R. E. W. (2021) FIGS. 20A-20D. Microtiter plate assays to assess antibiofilm activity against bacteria. Nature Protocols, 16(5), 2615-2632]. The effect of peptide on planktonic growth and biofilm growth of MRSA USA300 (FIG. 20A, FIG. 20C) and P. aeruginosa PAO1 (FIGS. 20B, 20D) was assessed and compared to the activity seen for AB103-D (gray stars) and DJK5 (gray open circles). Data shown are the average of three biological replicates. Error bars have been omitted for clarity. […]. The results indicated enhanced antibiofilm and antibacterial activity of AB103-D derivatives compared to DJK5.

[5] = Subdermal murine toxicity model; details: for Clinical score: 1 hour after subcutaneous administration, comparator DJK-5; for Average cyst size compared to DJK-5: 16 hours after administration, 4 mg/kg
Method: FIGS. 14A-14B show murine subdermal toxicity assessment of AB103-D derived peptides. Clinical scores were recorded for each peptide treated mouse one hour after peptide administration (FIG. 14A). […] The presence of a cyst or lesion was recorded 16 hours after peptide administration and the size of the cyst was measured using calipers (FIG. 14B). Data shown are the mean of two independent replicates at a peptide dose of 4 mg/kg.
Subdermal murine toxicity model: A subdermal toxicity mouse model was used to evaluate whether peptides induced localized toxicity of treated cutaneous tissue. Mice were anesthetized with 2.5-3% isoflurane and their fur was removed by shaving followed by application of a chemical depilatory. […] Mice were visually assessed and received clinical scores for a battery of signs or symptoms (activity/behaviour change, appearance/grooming, hydration, pain, cyst formation), for which a score of zero was given to animals that appeared normal. Animals were weighed and clinical scores were totalled. Following an overnight (16 h) incubation, mice were scored and weighed then euthanized with CO2 followed by cervical dislocation. Mice were imaged and cysts (swollen, inflamed tissue) were measured using a caliper. Animal experiments were performed in accordance with the Canadian Council on Animal Care (CCAC) guidelines and were approved by the University of British Columbia Animal Care Committee. Female CD-1 mice were purchased from Charles River Laboratories, Inc. (Wilmington, MA). All mice were 8 weeks of age and weighed 25±5 g at the time of the experiment. Animals were group housed in cohorts of three to four littermates. Standard animal husbandry practices were employed.

[6] = test system: Staphylococcus haemolyticus; assay: MIC (broth microdilution) of peptides, S. haemolyticus; type: cell-based; details: mode of three biological replicates
Method: as §1, §2

Streptococcus salivarius = assay: MIC (broth microdilution) of peptides, S. salivarius; type: cell-based; details: mode of three biological replicates
Method: as §1, §2

MRSA USA 300 = assay: MIC (broth microdilution) of peptides, MRSA; type: cell-based, methicillin resistant Staphylococcus aureus; details: MRSA USA300; mode of three biological replicates
Method: as §1, §2

MRSA USA300 biofilms = assay: Biofilm inhibition by >95% pure peptides (crystal violet), MRSA; type: cell-based, methicillin resistant Staphylococcus aureus; details: MRSA USA300 biofilms, >95% pure peptides, 10% TSB + 0.1% glucose
[7] = test system: P. aeruginosa PAO1 biofilms; assay: Biofilm inhibition by SPOT-synthesized AB103-D variants (crystal violet), P. aeruginosa; type: cell-based, Pseudomonas aeruginosa; details: P. aeruginosa PAO1, SPOT peptides

CC[C@@H](C)[C@@H](NC(=O)[C@@H](C)NC(=O)[C@@H](CCCNC(=N)N)NC(=O)[C@@H](Cc1c[nH]c2ccccc12)NC(=O)[C@@H](CCCCN)NC(=O)[C@H](NC(=O)[C@@H](CCCNC(=N)N)NC(=O)[C@H](NC(=O)[C@H](NC(=O)[C@@H](CCCNC(=N)N)NC(=O)[C@H](NC(=O)[C@H](N)CCCNC(=N)N)C(C)C)C(C)C)[C@H](C)CC)C(C)C)C(N)=O [AB114-D, rvrvirvkwrai] (H-[dR][dV][dR][dV][dI][dR][dV][dK][dW][dR][dA][dI]-NH2)
Better activity vs. MRSA cf. AB103-D [1]: ~2 fold
MIC (Klebsiella pneumoniae): 0.8 µg/mL (≈ 0.516 µM)
MIC (P. aeruginosa PAO1): 2 µg/mL (≈ 1.29 µM)
MIC [2]: 0.4 µg/mL (≈ 0.258 µM)
minimum inhibitory concentration of peptide that inhibited at least 90% of biofilm growth (MBIC90) [3]: 8 µM
Planktonic growth inhibition [4]: among the most active against planktonic cells
Clinical score [5]: < 2
Average cyst size compared to DJK-5 [5]: smaller than those induced by DJK-5
MIC [6]: 0.8 µg/mL (≈ 0.516 µM)
MIC (Streptococcus salivarius): 0.8 µg/mL (≈ 0.516 µM)
MIC (MRSA USA 300): 0.8 µg/mL (≈ 0.516 µM)
minimum inhibitory concentration of peptide that inhibited at least 90% of biofilm growth (MBIC90) (MRSA USA300 biofilms): 0.5 µM

CC[C@@H](C)[C@@H](NC(=O)[C@@H](C)NC(=O)[C@@H](CCCNC(=N)N)NC(=O)[C@@H](Cc1c[nH]c2ccccc12)NC(=O)[C@@H](CCC(N)=O)NC(=O)[C@H](NC(=O)[C@@H](CCCNC(=N)N)NC(=O)[C@@H](Cc1c[nH]c2ccccc12)NC(=O)[C@H](NC(=O)[C@@H](CCCNC(=N)N)NC(=O)[C@H](NC(=O)[C@H](N)CCCNC(=N)N)C(C)C)C(C)C)C(C)C)C(N)=O [AB111-D, rvrvwrvqwrai] (H-[dR][dV][dR][dV][dW][dR][dV][dQ][dW][dR][dA][dI]-NH2)
MIC (Klebsiella pneumoniae): 0.8 µg/mL (≈ 0.493 µM)
MIC (P. aeruginosa PAO1): 2 µg/mL (≈ 1.23 µM)
MIC [2]: 0.8 µg/mL (≈ 0.493 µM)
Activity against PAO1 biofilms compared to AB103-D [7]: activity superior to that of AB103-D
minimum inhibitory concentration of peptide that inhibited at least 90% of biofilm growth (MBIC90) [3]: 4 µM
Planktonic growth inhibition [4]: among the most active against planktonic cells
Clinical score [5]: < 2
Average cyst size compared to DJK-5 [5]: smaller than those induced by DJK-5
MIC [6]: 0.8 µg/mL (≈ 0.493 µM)
MIC (Streptococcus salivarius): 0.8 µg/mL (≈ 0.493 µM)
MIC (MRSA USA 300): 0.8 µg/mL (≈ 0.493 µM)
minimum inhibitory concentration of peptide that inhibited at least 90% of biofilm growth (MBIC90) (MRSA USA300 biofilms): 0.5 µM
